Reference: patent US20150368248A1, “2-SUBSTITUTED-6-BIARYLMETHYLAMINO-9-CYCLOPENTYL-9H-PURINE DERIVATIVES, USE THEREOF AS MEDICAMENTS, AND PHARMACEUTICAL COMPOSITIONS” (UNIVERZITA PALACKEHO V OLOMOUCI, priority 2013, published 2015)
pIC50: −log10 of the molar value.

Columns and labels:
HCC-1.1 (3sp) = test: MTT cytotoxicity assay (Example 30); assay type: cell-based; conditions: Homo sapiens, 72 h; MTT, three days after drug addition; read-out: Inhibitory concentration IC50, 3sp
PLC/PRF/5 = test: MTT cytotoxicity assay (Example 30); assay type: cell-based; conditions: Homo sapiens, PLC-PRF-5, 72 h; MTT, three days after drug addition; read-out: Inhibitory concentration IC50, PLC/PRF/5
HUH-7 = test: MTT cytotoxicity assay (Example 30); assay type: cell-based; conditions: Homo sapiens, Huh-7, 72 h; MTT, three days after drug addition; read-out: Inhibitory concentration IC50, HUH-7
HCC-1.2 (3p) = test: MTT cytotoxicity assay (Example 30); assay type: cell-based; conditions: Homo sapiens, HCC-1.2, 72 h; MTT, three days after drug addition; read-out: Inhibitory concentration IC50, 3p
[1] = system: caspase-3/7 activity in PLC/PRF/5 cell line; test: One-step cellular caspase-3/7 activity assay; assay type: cell-based, human; conditions: 24 hours incubation, relative to 0 nM = 1.00
How it was run: (§1)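 Hep3B or PLC/PRF/5 cells, plated overnight, were exposed to compounds for 24 h. Lysis buffer containing 150 μM Ac-DEVD-AMC substrate was added, and plates were incubated at 37° C. Caspase-3/7 activity was read as AMC fluorescence (ex 346/em 442 nm) after 6 h.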

[2] = system: caspase-3/7 activity in Hep3B cell line; test: One-step cellular caspase-3/7 activity assay; assay type: cell-based, human; conditions: 24 hours, 0 nM = 1.00
How it was run: as §1

HepG2 = test: MTT cytotoxicity assay (Example 30); assay type: cell-based; conditions: Homo sapiens, HepG2, 72 h; MTT, three days after drug addition; read-out: Inhibitory concentration IC50, HepG2
How it was run: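 HepG2 cells in EMEM with 10% FBS, seeded at 10000 per well, dosed next day in triplicate at various concentrations. Three days later MTT added for 4 h; formazan dissolved in DMSO and absorbance read at 570 nm.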

[3] = system: p53-regulated transcription in Arn8 cells; test: p53-dependent transcriptional activity, β-galactosidase reporter; assay type: cell-based; conditions: 24 h incubation
How it was run: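 Arn8 melanoma cells stably carrying the p53-responsive pRGCAfoslacZ reporter, exposed to compounds for 24 h. Cells permeabilised with 0.3% Triton X-100 for 15 min, then given 80 μM 4-methylumbelliferyl-β-D-galactopyranoside. β-Galactosidase product fluorescence read after 1 h at 355/460 nm.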

Structure (SMILES): NC1CCC(Nc2nc(NCc3ccc(-c4ccccc4O)nc3)c3ncn(C4CCCC4)c3n2)CC1 (stereo not drawn) [BP20, N^2-(4-amino-cyclohexyl)-9-cyclopentyl-N^6-[6-(2-hydroxy-phenyl)-pyridin-3-ylmethyl]-9H-purine-2,6-diamine]
- pIC50 (HCC-1.1 (3sp)): 6.71
- pIC50 (PLC/PRF/5): 8.15
- pIC50 (HUH-7): 6.74
- pIC50 (HCC-1.2 (3p)): 6.88
- Relative caspase-3/7 activity in PLC/PRF/5 cell line ([1]; compound concentration 40 nM): 3.15
- Relative caspase-3/7 activity in PLC/PRF/5 cell line ([1]; compound concentration 80 nM): 2.66
- Relative caspase-3/7 activity in PLC/PRF/5 cell line ([1]; compound concentration 160 nM): >5.00
- Relative caspase-3/7 activity in PLC/PRF/5 cell line ([1]; compound concentration 320 nM): >5.00
- Relative caspase-3/7 activity in PLC/PRF/5 cell line ([1]; compound concentration 640 nM): >5.00
- Relative caspase-3/7 activity in PLC/PRF/5 cell line ([1]; compound concentration 1280 nM): >5.00
- Relative caspase-3/7 activity in Hep3B cell line ([2]; 100 nM): 4.42
- Relative caspase-3/7 activity in Hep3B cell line ([2]; 200 nM): 5.37
- Relative caspase-3/7 activity in Hep3B cell line ([2]; 400 nM): 8.25
- Relative caspase-3/7 activity in Hep3B cell line ([2]; 800 nM): 9.63
- Relative caspase-3/7 activity in Hep3B cell line ([2]; 1600 nM): 9.95
- pIC50 (HepG2): 7.17
- Concentration of maximum activation [3]: 150 nM

Structure (SMILES): NC1CCC(Nc2nc(NCc3ccc(-c4cccc(F)c4)cc3)c3ncn(C4CCCC4)c3n2)CC1 (stereo not drawn) [BP12, N^2-(4-amino-cyclohexyl)-9-cyclopentyl-N^6-(3′-fluoro-biphenyl-4-ylmethyl)-9H-purine-2,6-diamine]
- pIC50 (HCC-1.1 (3sp)): 6.31
- pIC50 (PLC/PRF/5): 7.11
- pIC50 (HUH-7): 6.70
- pIC50 (HCC-1.2 (3p)): 6.54
- Relative caspase-3/7 activity in PLC/PRF/5 cell line ([1]; compound concentration 40 nM): 0.93
- Relative caspase-3/7 activity in PLC/PRF/5 cell line ([1]; compound concentration 80 nM): 1.27
- Relative caspase-3/7 activity in PLC/PRF/5 cell line ([1]; compound concentration 160 nM): 3.10
- Relative caspase-3/7 activity in PLC/PRF/5 cell line ([1]; compound concentration 320 nM): 2.95
- Relative caspase-3/7 activity in PLC/PRF/5 cell line ([1]; compound concentration 640 nM): >5.00
- Relative caspase-3/7 activity in PLC/PRF/5 cell line ([1]; compound concentration 1280 nM): >5.00
- Relative caspase-3/7 activity in Hep3B cell line ([2]; 200 nM): 1.12
- Relative caspase-3/7 activity in Hep3B cell line ([2]; 400 nM): 4.20
- Relative caspase-3/7 activity in Hep3B cell line ([2]; 800 nM): 7.04
- Relative caspase-3/7 activity in Hep3B cell line ([2]; 1600 nM): 9.85
- pIC50 (HepG2): 6.61
- Concentration of maximum activation [3]: 986 nM
